Earlier results as cited in patent US4127517A, “Novel docosapeptides, intermediates therefore and pharmaceutical compositions and methods employing said docosapeptides” (priority 1977, dated 1978).

What was measured:
[1] = system: brain opiate receptor sites
[2] = injected directly into the brain of the rat

Substance: H-Tyr-Gly-Gly-Phe-Met-OH [methionine enkephalin]
- binding to partially purified brain opiate receptor sites [1]: binds stereo-specifically
- analgesic activity [2]: weak analgesic agent of short duration
